Reference: US11680068B2, “Compounds useful as RET inhibitors” (Cancer Research Technology Limited, priority 2017, dated 2023)

These compounds were tested against RET (Homo sapiens (Human), UniProt P07949) (assay: RET enzyme assay (CisBio HTRF kinEASE)). Settings: tested compounds listed as lacking activity.
Type: biochemical

Chain of RET (P07949 658-1114): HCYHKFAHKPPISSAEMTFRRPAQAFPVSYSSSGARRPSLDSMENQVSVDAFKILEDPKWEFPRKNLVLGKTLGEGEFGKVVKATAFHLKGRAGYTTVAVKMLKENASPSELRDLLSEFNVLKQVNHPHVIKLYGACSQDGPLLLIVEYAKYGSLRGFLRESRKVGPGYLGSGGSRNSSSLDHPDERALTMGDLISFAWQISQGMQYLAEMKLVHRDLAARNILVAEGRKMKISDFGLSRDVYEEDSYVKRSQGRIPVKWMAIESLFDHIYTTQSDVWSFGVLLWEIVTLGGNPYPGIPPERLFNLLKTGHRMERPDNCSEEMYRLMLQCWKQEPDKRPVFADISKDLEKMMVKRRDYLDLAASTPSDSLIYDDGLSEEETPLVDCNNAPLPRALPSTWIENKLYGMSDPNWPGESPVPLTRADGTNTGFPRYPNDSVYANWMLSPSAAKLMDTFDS

desired activity in the assays described in Example 51 | Structure (SMILES)
did not exhibit the desired activity | CC(C)(C)n1nc(-c2ccc3cc(C(=O)O)[nH]c3c2)c2c(N)ncnc21 [6-(4-amino-1-tert-butyl-pyrazolo[3,4-d]pyrimidin-3-yl)-1H-indole-2-carboxylic acid]
did not exhibit the desired activity | CC(C)(C)n1nc(-c2ccc3cc(C(=O)Nc4nnc(C(F)(F)F)s4)[nH]c3c2)c2c(N)ncnc21 [6-(4-amino-1-tert-butyl-pyrazolo[3,4-d]pyrimidin-3-yl)-N-[5-(trifluoromethyl)-1,3,4-thiadiazol-2-yl]-1H-indole-2-carboxamide]
did not exhibit the desired activity | CNC(=O)c1cc2ccc(-c3n[nH]c4ncnc(N)c34)cc2[nH]1 [6-(4-amino-1H-pyrazolo[3,4-d]pyrimidin-3-yl)-N-methyl-1H-indole-2-carboxamide]
did not exhibit the desired activity | CNC(=O)c1cc2ccc(-c3nn(CCO)c4ncnc(N)c34)cc2[nH]1 [6-[4-amino-1-(2-hydroxyethyl)pyrazolo[3,4-d]pyrimidin-3-yl]-N-methyl-1H-indole-2-carboxamide]
did not exhibit the desired activity | CNC(=O)c1cc2ccc(-c3nn(CC(=O)N(C)C)c4ncnc(N)c34)cc2[nH]1 [6-[4-amino-1-[2-(dimethylamino)-2-oxo-ethyl]pyrazolo[3,4-d]pyrimidin-3-yl]-N-methyl-1H-indole-2-carboxamide]
did not exhibit the desired activity | CNC(=O)c1cc2ccc(-c3nn(CCC(=O)N(C)C)c4ncnc(N)c34)cc2[nH]1 [6-[4-amino-1-[3-(dimethylamino)-3-oxo-propyl]pyrazolo[3,4-d]pyrimidin-3-yl]-N-methyl-1H-indole-2-carboxamide]
did not exhibit the desired activity | CCNC(=O)c1cc2ccc(-c3nn([C@H]4CC[C@@H](O)C4)c4ncnc(NC)c34)cc2[nH]1 [N-ethyl-6-[1-[(1S,3R)-3-hydroxycyclopentyl]-4-(methylamino)pyrazolo[3,4-d]pyrimidin-3-yl]-1H-indole-2-carboxamide]
